Assay results as given in PubChem BioAssay AID1259407 (Chemical Carcinogenesis Research Information System (CCRIS), 2018).
Active and inactive are the calls of the source. No rule for the calls is given here.

Tested on: CCRIS mutagenicity, Ames/micronucleus/aberration tests
Experiment: CCRIS mutagenicity studies
[1] = Test System: AMES SALMONELLA TYPHIMURIUM, Strain/Indicator: TA98, Metabolic Activation: NONE, Method: STANDARD PLATE
[2] = Test System: AMES SALMONELLA TYPHIMURIUM, Strain/Indicator: TA100, Metabolic Activation: NONE, Method: STANDARD PLATE

For `O=CCCCC=O`, the mutagenic call (End Point: IN VITRO CHROMOSOMAL ABERRATIONS, Test System: CHL CELLS, Metabolic Activation: RAT, LIVER, S-9, SODIUM PHENOBARBITAL AND 5,6-BENZOFLAVONE) was “active; positive (structural and ploidy changes)”, the mutagenic call (End Point: IN VITRO CHROMOSOMAL ABERRATIONS, Test System: SYRIAN HAMSTER EMBRYO (SHE) CELLS, Metabolic Activation: NONE) was “inactive; negative” and the mutagenic call (End Point: IN VITRO CHROMOSOMAL ABERRATIONS, Test System: SYRIAN HAMSTER EMBRYO (SHE) CELLS, Metabolic Activation: RAT, LIVER, S-9) was “inactive; negative”. The mutagenic call (End Point: In vitro micronucleus, Test System: Chinese hamster V79 cells, Metabolic Activation: None) was “active; positive (concentrations of 10 um and above strongly inhibited growth of cells,”, the mutagenic call (End Point: In vitro micronucleus, Test System: Chinese hamster V79 cells, Metabolic Activation: None, Method: FISH) was “inactive; positive (majority were centromer negative. authors attribute results as showing” and the mutagenic call (Test System: AMES SALMONELLA TYPHIMURIUM, Strain/Indicator: TA97A, Metabolic Activation: NONE, Method: STANDARD PLATE) was “inactive; negative”. The mutagenic call (Test System: AMES SALMONELLA TYPHIMURIUM, Strain/Indicator: TA98, Metabolic Activation: HAMSTER LIVER S-9, AROCLOR-1254 (10%), Method: PREINCUBATION) was “inactive; negative”, the mutagenic call [1] was “inactive; negative” and the mutagenic call (Test System: AMES SALMONELLA TYPHIMURIUM, Strain/Indicator: TA98, Metabolic Activation: RAT LIVER S-9, AROCLOR-1254 (10%), Method: PREINCUBATION) was “inactive; negative”. For the same compound, the mutagenic call (Test System: AMES SALMONELLA TYPHIMURIUM, Strain/Indicator: TA98, Metabolic Activation: RAT LIVER S-9, PHENOBARBITAL AND BETA-NAPHTHOFLAVONE, Method: PREINCUBATION) was “inactive; negative”, the mutagenic call (Test System: AMES SALMONELLA TYPHIMURIUM, Strain/Indicator: TA100, Metabolic Activation: HAMSTER LIVER S-9, AROCLOR-1254 (10%), Method: PREINCUBATION) was “inactive; negative” and the mutagenic call (Test System: AMES SALMONELLA TYPHIMURIUM, Strain/Indicator: TA100, Metabolic Activation: MOUSE LIVER S-9, AROCLOR 1254, Method: PREINCUBATION) was “active; positive”. The mutagenic call [2] was “inactive; negative”, the mutagenic call (Test System: AMES SALMONELLA TYPHIMURIUM, Strain/Indicator: TA100, Metabolic Activation: RAT LIVER S-9, AROCLOR 1254, Method: PREINCUBATION) was “active; positive” and the mutagenic call (Test System: AMES SALMONELLA TYPHIMURIUM, Strain/Indicator: TA100, Metabolic Activation: RAT LIVER S-9, PHENOBARBITAL AND BETA-NAPHTHOFLAVONE NONE, Method: PREINCUBATION) was “inactive; negative”. For the same compound, the mutagenic call (Test System: AMES SALMONELLA TYPHIMURIUM, Strain/Indicator: TA102, Metabolic Activation: MOUSE LIVER S-9, AROCLOR 1254, Method: PREINCUBATION) was “active; positive”, the mutagenic call (Test System: AMES SALMONELLA TYPHIMURIUM, Strain/Indicator: TA102, Metabolic Activation: MOUSE LIVER S-9, AROCLOR-1254 (10%), Method: PREINCUBATION) was “active; positive” and the mutagenic call (Test System: AMES SALMONELLA TYPHIMURIUM, Strain/Indicator: TA102, Metabolic Activation: NONE, Method: PREINCUBATION) was “active; positive”. For the same compound, the mutagenic call (Test System: AMES SALMONELLA TYPHIMURIUM, Strain/Indicator: TA102, Metabolic Activation: RAT LIVER S-9, AROCLOR 1254, Method: PREINCUBATION) was “active; positive”, the mutagenic call (Test System: AMES SALMONELLA TYPHIMURIUM, Strain/Indicator: TA102, Metabolic Activation: RAT LIVER S-9, AROCLOR-1254 (10%), Method: PREINCUBATION) was “active; positive” and the mutagenic call (Test System: AMES SALMONELLA TYPHIMURIUM, Strain/Indicator: TA104, Metabolic Activation: MOUSE LIVER S-9, AROCLOR 1254, Method: PREINCUBATION) was “active; positive”. For the same compound, the mutagenic call (Test System: AMES SALMONELLA TYPHIMURIUM, Strain/Indicator: TA104, Metabolic Activation: MOUSE LIVER S-9, AROCLOR-1254 (10%), Method: PREINCUBATION) was “active; positive”, the mutagenic call (Test System: AMES SALMONELLA TYPHIMURIUM, Strain/Indicator: TA104, Metabolic Activation: NONE, Method: PREINCUBATION) was “active; positive” and the mutagenic call (Test System: AMES SALMONELLA TYPHIMURIUM, Strain/Indicator: TA104, Metabolic Activation: NONE, Method: STANDARD PLATE) was “inactive; negative”. The mutagenic call (Test System: AMES SALMONELLA TYPHIMURIUM, Strain/Indicator: TA104, Metabolic Activation: RAT LIVER S-9, AROCLOR 1254, Method: PREINCUBATION) was “active; positive”, the mutagenic call (Test System: AMES SALMONELLA TYPHIMURIUM, Strain/Indicator: TA104, Metabolic Activation: RAT LIVER S-9, AROCLOR-1254 (10%), Method: PREINCUBATION) was “active; positive” and the mutagenic call (Test System: AMES SALMONELLA TYPHIMURIUM, Strain/Indicator: TA1535, Metabolic Activation: HAMSTER LIVER S-9, AROCLOR-1254 (10%), Method: PREINCUBATION) was “inactive; negative”. For the same compound, the mutagenic call (Test System: AMES SALMONELLA TYPHIMURIUM, Strain/Indicator: TA1535, Metabolic Activation: NONE, Method: PREINCUBATION) was “inactive; negative”, the mutagenic call (Test System: AMES SALMONELLA TYPHIMURIUM, Strain/Indicator: TA1535, Metabolic Activation: RAT LIVER S-9, AROCLOR-1254 (10%), Method: PREINCUBATION) was “inactive; negative” and the mutagenic call (Test System: AMES SALMONELLA TYPHIMURIUM, Strain/Indicator: TA1535, Metabolic Activation: RAT LIVER S-9, PHENOBARBITAL AND BETA-NAPHTHOFLAVONE NONE, Method: PREINCUBATION) was “inactive; negative”. For the same compound, the mutagenic call (Test System: AMES SALMONELLA TYPHIMURIUM, Strain/Indicator: TA1537, Metabolic Activation: HAMSTER LIVER S-9, AROCLOR-1254 (10%), Method: PREINCUBATION) was “inactive; negative”, the mutagenic call (Test System: AMES SALMONELLA TYPHIMURIUM, Strain/Indicator: TA1537, Metabolic Activation: NONE, Method: PREINCUBATION) was “inactive; negative” and the mutagenic call (Test System: AMES SALMONELLA TYPHIMURIUM, Strain/Indicator: TA1537, Metabolic Activation: RAT LIVER S-9, AROCLOR-1254 (10%), Method: PREINCUBATION) was “inactive; negative”. The mutagenic call (Test System: AMES SALMONELLA TYPHIMURIUM, Strain/Indicator: TA1537, Metabolic Activation: RAT LIVER S-9, PHENOBARBITAL AND BETA-NAPHTHOFLAVONE NONE, Method: PREINCUBATION) was “inactive; negative”, the mutagenic call (Test System: AMES SALMONELLA TYPHIMURIUM, Strain/Indicator: TA2638, Metabolic Activation: NONE, Method: STANDARD PLATE) was “active; positive” and the mutagenic call (Test System: AMES SALMONELLA TYPHIMURIUM, Strain/Indicator: TA2638A, Metabolic Activation: NONE, Method: STANDARD PLATE) was “active; positive”. The mutagenic call (Test System: E. COLI, Strain/Indicator: WP2 UVRA (PKM101), Metabolic Activation: NONE, Method: STANDARD PLATE) was “active; positive”, the mutagenic call (Test System: E. COLI, Strain/Indicator: WP2UVRA, Metabolic Activation: NONE, Method: PREINCUBATION) was “inactive; negative” and the mutagenic call (Test System: E. COLI, Strain/Indicator: WP2UVRA, Metabolic Activation: RAT LIVER S-9, PHENOBARBITAL AND BETA-NAPHTHOFLAVONE, Method: PREINCUBATION) was “inactive; negative”. For the same compound, the mutagenic call (Test System: MOUSE LYMPHOMA, Strain/Indicator: L5178Y (TRIFLUOROTHYMIDINE), Metabolic Activation: NONE, Method: SUSPENSION/PLATE) was “active; positive” and the mutagenic call (Test System: UDS RODENT HEPATOCYTES, Strain/Indicator: THY INCORP (NON-S-PHASE), Metabolic Activation: NONE, Method: AUTORADIOGRAPHY) was “active; positive”.

For `CN1CCN(c2ccc3nc(CCc4ccc5nc(-c6ccc(N(CCCl)CCCl)cc6)[nH]c5c4)[nH]c3c2)CC1`, the mutagenic call [1] was “inactive; negative”, the mutagenic call [2] was “inactive; negative” and the mutagenic call (Test System: AMES SALMONELLA TYPHIMURIUM, Strain/Indicator: TA102, Metabolic Activation: NONE, Method: STANDARD PLATE) was “active; positive”.
